For one test, the target named is T1, BACE-1 enzyme (Homo sapiens, UniProt P56817).
T1 construct: purchased R & D Systems 931AS
Nature of the test: BACE Fluorescence Resonance Energy Transfer (FRET) Assay. The class given is biochemical. Conditions: pH 4-4.5, 30 min pre-incubation, about 1.5 hours reaction. In a few lines:
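Fluorescence (ex 540, em 585 nm) after ~1.5 h room-temperature cleavage of a quenched rhodamine peptide tracks BACE-1 activity. Enzyme and compound first sit 30 min in pH 4-4.5 acetate buffer with CHAPS, Triton X-100, EDTA, 7.5% DMSO. Values given as IC50 or % inhibition.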

The subject of test [1] is Aβ1-40 secreted from HEK293 cells stably expressing wildtype human APP695 protein (HEK-APPwt cells). The test is described as follows: Aβ Cell Based Assay (Aβ1-40 secretion, ELISA). Conditions: Homo sapiens, HEK293, 6 h, 6 hours incubation, reduction of Aβ1-40 secretion. As for the experimental part: Aβ Cell Based Assay Procedure
In the following assay, the proteolytic activity of BACE in cells exposed to varying concentrations of a compound of interest is measured by observing the amount of Aβ1-40 secreted from HEK293 cells (Human Embryonic Kidney epithelial cell line) stably expressing wildtype human APP695 protein (HEK-APPwt cells).
HEK-APPwt cells were grown in high glucose DMEM (Dulbecco's Modified Eagles Medium SIGMA Cat.# D5796) supplemented with 25 mM HEPES (4-(2-hydroxyethyl)-1-piperazineethanesulfonic acid) (pH 7.4) (Invitrogen Cat.# 15630-114), 0.1 mM NEAA (Non-essential Amino Acids) (BioWhittaker Cat. #13-114E), 10% fetal bovine serum (SIGMA Cat. #F4135) and 250 μg/mL hygromycin (Invitrogen Cat. #10687-010) in T-225 flasks at 37° C. with 5% CO2 and humidity control.
Test compounds were initially prepared in DMSO and diluted with DMEM media containing 2% FBS (Fetal bovine serum). Ten standard compound solutions were prepared having a range of concentrations. The standard compound solutions were used to determine the EC50 of the test compound. The range of concentrations chosen may depend on the compound's predicted potency.
To prepare the cells for the assay, a flask containing HEK-APPwt cells were trypsinized briefly (1 mL trypsin), and once the cells detached, 4 mL of 10% FBS-DMEM was added to the flask. The detached cells were centrifuged at 900 rpm for 5 min to form a pellet.
The HEK-APPwt cell pellet was re-suspended with 10 mL DMEM media containing 2% FBS. 80 μL of the cell suspension was added to each well of a 96-well cell culture plate to give 100×10^4cells/ml. 10 μL of a standard compound solution was added to each well of the 96-well cell culture plate followed by 10 μL of Alamar blue solution. The cells were incubated at 37° C. in a 5% CO2 incubator for 6 hours.
At the end of the incubation, the plates were removed from incubator, and the supernatant was collected. A≈1-40 concentration in the medium was measured by using a commercial Aβ1-X ELISA kit (IBL, Japan Cat. #27729). Briefly, the ELISA plates were coated with an anti-human AO (N)(82E1) mouse IgG monoclonal antibody. A horseradish peroxidase conjugated anti-human Aβ11-28 mouse IgG monoclonal antibody was used for detection. The cell culture supernatant was diluted with EIA buffer +protease inhibitors (kit buffer containing protease inhibitors (1 mL PI/30 mL buffer)). A 100 μL aliquot of the diluted supernatant was added to each well of the ELISA plate and incubated for 6 hrs at 4° C. The ELISA plate was washed 8 times with phosphate buffered saline (PBS) containing 0.05% Tween 20.
A 100 μL of detection antibody was then added and incubated for 1 hour at 4° C. The plate was washed 8 times with PBS buffer containing 0.05% Tween 20 followed by addition of 100 μL of the chromogen tetramethylbenzidine (TMB). The plate was incubated in the dark at room temperature for about 30 min and a stop solution (1N H2SO4) was added.
The intensity of the color developed was measured at 450 nm. The optical density at 450 nm (OD450) is proportional to the concentration of human Aβ1-40 secreted by the cell. As a reference, N-[N-(3,5-difluorophenacetyl-L-alanyl)]-S-phenylglycine t-butyl ester (DAPT, a γ-secretase inhibitor) was used to indicate 100% inhibition of BACE activity. Thus, the assay measures the ability of a compound of interest to reduce Aβ1-40 secretion. For select compounds, compound potency is reported in Table 3 as the EC50 by calculating the percent inhibition at all concentration levels and the data were fit with non-linear curve fitting algorithm using GraphPad Prism.
On the technique in general: An ELISA detects its analyte on a solid surface through an enzyme-linked reagent.

Structures can show the parent of a compound that is named as a salt.

One may read the IC50 as the concentration that gives 50% inhibition. Usually EC50 stands for the midpoint of the concentration-response curve.

T1 sequence (P56817 46-457 limits assumed): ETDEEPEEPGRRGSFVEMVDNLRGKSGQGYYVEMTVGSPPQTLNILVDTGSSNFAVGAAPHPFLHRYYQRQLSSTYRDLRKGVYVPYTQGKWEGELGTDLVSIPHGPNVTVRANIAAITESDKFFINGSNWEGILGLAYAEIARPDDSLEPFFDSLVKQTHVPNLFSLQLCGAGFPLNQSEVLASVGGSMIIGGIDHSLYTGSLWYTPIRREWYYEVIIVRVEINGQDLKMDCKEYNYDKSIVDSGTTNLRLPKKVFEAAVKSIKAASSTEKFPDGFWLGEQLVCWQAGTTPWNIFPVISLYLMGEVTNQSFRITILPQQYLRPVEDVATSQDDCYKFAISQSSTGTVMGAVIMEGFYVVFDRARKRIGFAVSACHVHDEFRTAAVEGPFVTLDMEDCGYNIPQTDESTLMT

In turn, `Cc1cccc2nc(C(=O)Nc3nc4cc(-c5cccc(C(F)(F)F)c5)ccc4[nH]3)cn12` [Example 1, 5-Methyl-imidazo[1,2-a]pyridine-2-carboxylic acid[5-(3-trifluoromethyl-phenyl)-1H-benzoimidazol-2-yl]-amide] yielded an IC50 against BACE-1 enzyme of 0.32 µM. In test [1], this molecule had an EC50 of 0.53 µM.

The molecule `O=C(Nc1nc2cc(-c3cccc(C(F)(F)F)c3)ccc2[nH]1)c1cn2c(OC3CCNCC3)cccc2n1` [Example 2, 5-(Piperidin-4-yloxy)-imidazo[1,2-a]pyridine-2-carboxylic acid[5-(3-trifluoromethyl-phenyl)-1H-benzoimidazol-2-yl]-amide trihydrochloride] registered an IC50 against BACE-1 enzyme of 0.98 µM. The EC50 in test [1] is 6.4 µM.

At BACE-1 enzyme, `CN1CCC(Oc2cccc3nc(C(=O)Nc4nc5cc(-c6cccc(C(F)(F)F)c6)ccc5[nH]4)cn23)CC1` [Example 3, 5-(1-Methyl-piperidin-4-yloxy)-imidazo[1,2-a]pyridine-2-carboxylic acid[5-(3-trifluoromethyl-phenyl)-1H-benzoimidazol-2-yl]-amide] showed an IC50 of 1.15 µM. In test [1], this molecule yielded an EC50 of 4.02 µM.

The molecule `CN1CCN(Cc2cccc3nc(C(=O)Nc4nc5cc(-c6cccc(C(F)(F)F)c6)ccc5[nH]4)cn23)CC1` [Example 10, 5-(4-Methyl-piperazin-1-ylmethyl)-imidazo[1,2-a]pyridine-2-carboxylic acid [5-(3-trifluoromethyl-phenyl)-1H-benzoimidazol-2-yl]-amide] had an IC50 against BACE-1 enzyme of 0.3 µM. Further, the concentration giving a half-maximal response (EC50) in test [1] is 2.53 µM.

Turning to `Cc1cccc2nc(C(=O)Nc3nc4ccc(-c5cccc(C(F)(F)F)c5)cc4n3C)cn12` [Example 11, 5-Methyl-imidazo[1,2-a]pyridine-2-carboxylic acid [1-methyl-6-(3-trifluoromethyl-phenyl)-1H-benzoimidazol-2-yl]-amide], the IC50 on BACE-1 enzyme came out at 0.55 µM. The molecule also returned an EC50 in test [1] of 8.83 µM.

Regarding `Cc1cccc2nc(C(=O)Nc3nc4cc(OCc5ccccc5)ccc4[nH]3)cn12` [Example 12, 5-Methyl-imidazo[1,2-a]pyridine-2-carboxylic acid (5-benzyloxy-1H-benzoimidazol-2-yl)-amide], inhibition at BACE-1 enzyme was half-maximal at 0.2 µM (IC50). Further, the response in test [1] was half-maximal at 2.01 µM (EC50).

At BACE-1 enzyme, `Cc1cccc2nc(C(=O)Nc3nc4cc(OCc5ccc(C(F)(F)F)cc5)ccc4[nH]3)cn12` [Example 18, 5-Methyl-imidazo[1,2-a]pyridine-2-carboxylic acid [5-(4-trifluoromethyl-benzyloxy)-1H-benzoimidazol-2-yl]-amide] gave an IC50 of 0.16 µM. In addition, in test [1], the concentration for a half-maximal effect (EC50) worked out at 0.42 µM.

As to `Cc1cccc2nc(C(=O)Nc3nc4cc(-c5ccc(C(F)(F)F)cc5)ccc4[nH]3)cn12` [Example 23, 5-Methyl-imidazo[1,2-a]pyridine-2-carboxylic acid [5-(4-trifluoromethyl-phenyl)-1H-benzoimidazol-2-yl]-amide], at BACE-1 enzyme, inhibition was half-maximal at 0.27 µM (IC50). Besides, in test [1], the midpoint of the response, the EC50, lay at 0.66 µM.

Regarding `Cc1cccc2nc(C(=O)Nc3nc4cc(OCc5cccc(C(F)(F)F)c5)ccc4[nH]3)cn12` [Example 26, 5-Methyl-imidazo[1,2-a]pyridine-2-carboxylic acid [5-(3-trifluoromethyl-benzyloxy)-1H-benzoimidazol-2-yl]-amide], the IC50 at BACE-1 enzyme amounted to 0.42 µM. Moreover, in test [1], the midpoint of the response, the EC50, lay at 1.21 µM.

`Cc1cccc2nc(C(=O)Nc3nc4cc(-c5cccc(Cl)c5)ccc4[nH]3)cn12` [Example 27, 5-Methyl-imidazo[1,2-a]pyridine-2-carboxylic acid [5-(3-chloro-phenyl)-1H-benzoimidazol-2-yl]-amide] displayed an IC50 against BACE-1 enzyme of 0.5 µM. The same molecule showed an EC50 in test [1] of 1.45 µM.

Take `Cc1cccn2cc(C(=O)Nc3nc4cc(-c5cccc(OC(F)(F)F)c5)ccc4[nH]3)nc12` [Example 28, 8-Methyl-imidazo[1,2-a]pyridine-2-carboxylic acid [5-(3-trifluoromethoxy-phenyl)-1H-benzoimidazol-2-yl]-amide]: the IC50 against BACE-1 enzyme was determined as 0.32 µM. This molecule had an EC50 in test [1] of 2.13 µM.

On BACE-1 enzyme, `Cc1cccn2cc(C(=O)Nc3nc4cc(-c5cccc(C(F)(F)F)c5)ccc4[nH]3)nc12` [Example 32, 8-Methyl-imidazo[1,2-a]pyridine-2-carboxylic acid [5-(3-trifluoromethyl-phenyl)-1H-benzoimidazol-2-yl]-amide] showed an IC50 of 0.52 µM. Also, a half-maximal effect in test [1] (EC50) was put at 1.36 µM.

Consider `CCOc1cccc(-c2ccc3[nH]c(NC(=O)c4cn5c(C)cccc5n4)nc3c2)c1` [Example 35, 5-Methyl-imidazo[1,2-a]pyridine-2-carboxylic acid [5-(3-ethoxy-phenyl)-1H-benzoimidazol-2-yl]-amide], for which half-maximal inhibition at BACE-1 enzyme (IC50) required 0.82 µM. In addition, in test [1], the EC50 was determined as 2.3 µM.

As to `CO[C@H]1CCN(c2ccc3nc(C(=O)Nc4nc5cc(-c6cc(F)cc(Cl)c6)ccc5[nH]4)cn3c2C)C1` [Example 237, 6-((S)-3-Methoxy-pyrrolidin-1-yl)-5-methyl-imidazo[1,2-a]pyridine-2-carboxylic acid [5-(3-chloro-5-fluoro-phenyl)-1H-benzoimidazol-2-yl]-amide], the IC50 against BACE-1 enzyme was 0.23 µM.

For `Cc1c(C#CCO)ccc2nc(C(=O)Nc3nc4cc(-c5cccc(C(F)(F)F)c5)ccc4[nH]3)cn12` [Example 238, 6-(3-Hydroxy-prop-1-ynyl)-5-methyl-imidazo[1,2-a]pyridine-2-carboxylic acid [5-(3-trifluoromethyl-phenyl)-1H-benzoimidazol-2-yl]-amide], the IC50 on BACE-1 enzyme turned out to be 0.22 µM.

For the molecule `COCCn1c(NC(=O)c2cn3c(C)cccc3n2)nc2ccc(-c3cccc(C(F)(F)F)c3)cc21` [Example 239, 5-Methyl-imidazo[1,2-a]pyridine-2-carboxylic acid [1-(2-methoxy-ethyl)-6-(3-trifluoromethyl-phenyl)-1H-benzoimidazol-2-yl]-amide], the IC50 on BACE-1 enzyme is 0.7 µM.

As to `Cc1cccn2cc(C(=O)Nc3nc4cc(-c5cccc(C(F)(F)F)c5)ccc4n3C)nc12` [Example 241, 8-Methyl-imidazo[1,2-a]pyridine-2-carboxylic acid [1-methyl-5-(3-trifluoromethyl-phenyl)-1H-benzoimidazol-2-yl]-amide], at BACE-1 enzyme, the IC50 turned out to be 1.5 µM.

With `COCCn1c(NC(=O)c2cn3c(C)cccc3n2)nc2cc(-c3ccc(Cl)c(C(F)(F)F)c3)ccc21` [Example 242, 5-Methyl-imidazo[1,2-a]pyridine-2-carboxylic acid [5-(4-chloro-3-trifluoromethyl-phenyl)-1-(2-methoxy-ethyl)-1H-benzoimidazol-2-yl]-amide], inhibition against BACE-1 enzyme was half-maximal at 0.44 µM (IC50).

On to `Cc1cccc2nc(C(=O)Nc3nc4cc(-c5ccc(Cl)c(C(F)(F)F)c5)ccc4n3CCN3CCOCC3)cn12` [Example 243, 5-Methyl-imidazo[1,2-a]pyridine-2-carboxylic acid [5-(4-chloro-3-trifluoromethyl-phenyl)-1-(2-morpholin-4-yl-ethyl)-1H-benzoimidazol-2-yl]-amide], for which, at BACE-1 enzyme, inhibition was half-maximal at 6.9 µM (IC50).

`O=C(O)c1ccn2cc(C(=O)Nc3nc4cc(-c5cc(F)cc(Cl)c5)ccc4[nH]3)nc2c1` [Example 244, 2-[5-(3-Chloro-5-fluoro-phenyl)-1H-benzoimidazol-2-ylcarbamoyl]-imidazo[1,2-a]pyridine-7-carboxylic acid] yielded an IC50 against BACE-1 enzyme of 3.64 µM.

The record behind these values is patent US20120101093A1, “SUBSTITUTED IMIDAZO[1,2-A]PYRIDINE DERIVATIVES, PHARMACEUTICAL COMPOSITIONS, AND METHODS OF USE AS BETA-SECRETASE INHIBITORS” (HIGH POINT PHARMACEUTICALS, LLC, priority 2009, published 2012).
